Data from patent US7902361B2, “Pyrimidin-4-yl-3, 4-thione compounds and their use in therapy” (Cyclacel Limited, priority 2003, dated 2011).

Assays:
Format in all cases: biochemical
[1] = biological target: CDK4/cyclin D1 (Homo sapiens, UniProt P11802); test: Kinase assay CDK4/cyclin D1; settings: Ki calculated (Cheng-Prusoff) from experimentally determined IC50 and Km,ATP; read-out: Kinase Inhibition Ki CDK4 - cyclin D1
Description: (§1) The compounds from the examples above were investigated for their ability to inhibit the enzymatic activity of various protein kinases. This was achieved by measurement of incorporation of radioactive phosphate from ATP into appropriate polypeptide substrates. Recombinant protein kinases and kinase complexes were produced or obtained commercially. Assays were performed using 96-well plates and appropriate assay buffers (typically 25 mM β-glycerophosphate, 20 mM MOPS, 5 mM EGTA, 1 mM DTT, 1 mM […], pH 7.4), into which were added 2-4 μg of active enzyme with appropriate substrates. The reactions were initiated by addition of Mg/ATP mix (15 mM MgCl2+100 μM ATP with 30-50 kBq per well of [γ-^32P]-ATP) and mixtures incubated as required at 30° C. Reactions were stopped on ice, followed by filtration through p81 filterplates or GF/C filterplates (Whatman Polyfiltronics, Kent, UK). After washing 3 times with 75 mM aq orthophosphoric acid, plates were dried, scintillant added and incorporated radioactivity measured in a scintillation counter (TopCount, Packard Instruments, Pangbourne, Berks, UK). Compounds for kinase assay were made up as 10 mM stocks in DMSO and diluted into 10% DMSO in assay buffer.

[2] = biological target: CDK1/cyclin B (Homo sapiens, UniProt P06493); test: Kinase assay CDK1/cyclin B (radioactive phosphate incorporation); settings: Ki calculated (Cheng-Prusoff) from experimentally determined IC50 and Km,ATP; read-out: Kinase Inhibition Ki CDK1 - cyclin B
CDK1/cyclin B, sequence (P06493 whole entry, species assumed): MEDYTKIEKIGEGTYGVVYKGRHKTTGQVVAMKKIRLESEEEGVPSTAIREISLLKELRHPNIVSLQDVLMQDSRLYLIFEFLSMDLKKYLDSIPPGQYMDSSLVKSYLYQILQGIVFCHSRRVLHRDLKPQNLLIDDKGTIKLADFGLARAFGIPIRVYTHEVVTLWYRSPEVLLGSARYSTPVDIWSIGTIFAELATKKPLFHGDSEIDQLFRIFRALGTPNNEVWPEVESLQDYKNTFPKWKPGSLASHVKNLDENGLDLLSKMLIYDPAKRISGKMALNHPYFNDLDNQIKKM
CDK1/cyclin B, sequence (P14635 whole entry partner, species assumed): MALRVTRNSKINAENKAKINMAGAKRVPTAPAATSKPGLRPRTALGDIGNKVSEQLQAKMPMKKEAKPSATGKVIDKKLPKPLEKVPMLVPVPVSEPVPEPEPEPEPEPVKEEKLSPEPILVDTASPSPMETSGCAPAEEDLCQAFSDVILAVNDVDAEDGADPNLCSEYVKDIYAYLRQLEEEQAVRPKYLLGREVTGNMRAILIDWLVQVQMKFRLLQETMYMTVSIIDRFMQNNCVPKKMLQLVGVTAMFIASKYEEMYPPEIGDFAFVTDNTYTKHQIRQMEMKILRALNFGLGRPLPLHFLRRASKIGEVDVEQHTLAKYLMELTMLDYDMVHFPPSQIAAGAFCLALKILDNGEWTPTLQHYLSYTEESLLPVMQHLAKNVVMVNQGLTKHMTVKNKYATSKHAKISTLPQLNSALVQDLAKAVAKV
Description: as §1, with “The reactions were initiated by addition of Mg/ATP mix (15 mM MgCl2+100 μM ATP with 30-50 kBq per well of [γ-^32P]-ATP) and mixtures incubated as required at 30° C.” left out

[3] = biological target: CDK9/cyclin T1 (Homo sapiens, UniProt P50750); test: Kinase assay CDK9/cyclin T1; settings: Ki calculated (Cheng-Prusoff) from experimentally determined IC50 and Km,ATP; read-out: Kinase Inhibition Ki CDK9 - cyclin T1
CDK9/cyclin T1, sequence (P50750 whole entry, species assumed): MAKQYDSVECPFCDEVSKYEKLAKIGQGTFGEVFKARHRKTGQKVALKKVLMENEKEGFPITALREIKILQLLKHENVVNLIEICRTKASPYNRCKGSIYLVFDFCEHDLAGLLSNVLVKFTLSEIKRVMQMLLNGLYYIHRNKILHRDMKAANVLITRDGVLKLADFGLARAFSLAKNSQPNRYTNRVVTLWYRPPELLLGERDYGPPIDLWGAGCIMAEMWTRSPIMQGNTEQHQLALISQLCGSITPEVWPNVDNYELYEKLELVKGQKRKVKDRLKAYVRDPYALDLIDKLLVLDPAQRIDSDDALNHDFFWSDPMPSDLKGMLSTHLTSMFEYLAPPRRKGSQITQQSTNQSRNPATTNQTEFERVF
CDK9/cyclin T1, sequence (O60563 whole entry partner, species assumed): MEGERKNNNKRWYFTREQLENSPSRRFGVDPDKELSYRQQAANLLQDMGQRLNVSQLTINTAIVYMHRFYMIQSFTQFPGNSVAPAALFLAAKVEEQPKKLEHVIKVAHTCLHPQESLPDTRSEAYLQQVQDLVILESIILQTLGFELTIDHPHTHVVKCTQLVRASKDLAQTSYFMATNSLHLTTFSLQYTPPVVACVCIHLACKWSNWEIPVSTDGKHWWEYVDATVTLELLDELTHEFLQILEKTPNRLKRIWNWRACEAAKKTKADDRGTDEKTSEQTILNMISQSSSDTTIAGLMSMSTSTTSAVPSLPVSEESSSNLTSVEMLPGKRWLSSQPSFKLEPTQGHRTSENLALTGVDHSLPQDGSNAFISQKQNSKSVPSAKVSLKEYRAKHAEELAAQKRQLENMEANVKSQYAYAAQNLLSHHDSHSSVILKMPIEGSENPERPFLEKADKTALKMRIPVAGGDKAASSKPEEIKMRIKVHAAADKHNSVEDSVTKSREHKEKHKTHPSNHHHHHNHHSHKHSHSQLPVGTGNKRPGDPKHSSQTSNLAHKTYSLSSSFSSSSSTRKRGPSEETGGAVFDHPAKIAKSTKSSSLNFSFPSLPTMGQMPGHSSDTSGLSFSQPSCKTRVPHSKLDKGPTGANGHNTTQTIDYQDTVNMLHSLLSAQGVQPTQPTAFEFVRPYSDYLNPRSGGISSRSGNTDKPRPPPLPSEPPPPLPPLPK
Description: as §1

[4] = biological target: CDK2/cyclin E (Homo sapiens, UniProt P24941); test: Kinase assay CDK2/cyclin E; settings: Ki calculated (Cheng-Prusoff) from experimentally determined IC50 and Km,ATP; read-out: Kinase Inhibition Ki CDK2 - cyclin E
Description: as §1, with “The reactions were initiated by addition of Mg/ATP mix (15 mM MgCl2+100 μM ATP with 30-50 kBq per well of [γ-^32P]-ATP) and mixtures incubated as required at 30° C.” left out

[5] = biological target: CDK2/cyclin A (Homo sapiens, UniProt P24941); test: Kinase assay CDK2/cyclin A; settings: Ki calculated (Cheng-Prusoff) from experimentally determined IC50 and Km,ATP; read-out: Kinase Inhibition Ki CDK2 - cyclin A
Description: as §1, with “The reactions were initiated by addition of Mg/ATP mix (15 mM MgCl2+100 μM ATP with 30-50 kBq per well of [γ-^32P]-ATP) and mixtures incubated as required at 30° C.” left out

[6] = biological target: T1, aurora A (Homo sapiens, UniProt O14965); test: Kinase assay aurora A; settings: Ki calculated (Cheng-Prusoff) from experimentally determined IC50 and Km,ATP; read-out: Kinase Inhibition Ki Aurora A
T1 sequence (O14965 1-403): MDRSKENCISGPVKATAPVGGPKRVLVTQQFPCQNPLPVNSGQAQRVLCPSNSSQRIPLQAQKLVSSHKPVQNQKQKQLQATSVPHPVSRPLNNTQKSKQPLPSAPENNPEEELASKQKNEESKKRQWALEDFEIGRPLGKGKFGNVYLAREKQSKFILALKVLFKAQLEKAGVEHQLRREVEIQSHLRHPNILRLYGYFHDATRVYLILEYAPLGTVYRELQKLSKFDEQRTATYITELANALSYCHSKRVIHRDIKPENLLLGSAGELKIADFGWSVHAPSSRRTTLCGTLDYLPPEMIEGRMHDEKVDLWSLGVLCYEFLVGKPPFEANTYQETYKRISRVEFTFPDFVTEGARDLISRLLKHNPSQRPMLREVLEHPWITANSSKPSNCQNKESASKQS
Description: as §1, with “The reactions were initiated by addition of Mg/ATP mix (15 mM MgCl2+100 μM ATP with 30-50 kBq per well of [γ-^32P]-ATP) and mixtures incubated as required at 30° C.” left out

[7] = biological target: CDK7/cyclin H (Homo sapiens, UniProt P50613); test: Kinase assay CDK7/cyclin H; settings: Ki calculated (Cheng-Prusoff) from experimentally determined IC50 and Km,ATP; read-out: Kinase Inhibition Ki CDK7 - cyclin H
CDK7/cyclin H, sequence (P50613 whole entry, species assumed): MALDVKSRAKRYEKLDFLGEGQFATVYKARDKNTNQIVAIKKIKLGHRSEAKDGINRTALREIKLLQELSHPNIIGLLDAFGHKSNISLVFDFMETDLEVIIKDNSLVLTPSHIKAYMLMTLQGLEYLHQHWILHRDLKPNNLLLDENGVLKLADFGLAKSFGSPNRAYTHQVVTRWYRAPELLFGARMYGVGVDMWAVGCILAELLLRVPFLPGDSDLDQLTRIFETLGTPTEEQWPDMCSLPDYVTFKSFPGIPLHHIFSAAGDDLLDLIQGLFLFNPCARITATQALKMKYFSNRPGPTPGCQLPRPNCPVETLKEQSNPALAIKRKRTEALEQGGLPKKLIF
CDK7/cyclin H, sequence (P51946 whole entry partner, species assumed): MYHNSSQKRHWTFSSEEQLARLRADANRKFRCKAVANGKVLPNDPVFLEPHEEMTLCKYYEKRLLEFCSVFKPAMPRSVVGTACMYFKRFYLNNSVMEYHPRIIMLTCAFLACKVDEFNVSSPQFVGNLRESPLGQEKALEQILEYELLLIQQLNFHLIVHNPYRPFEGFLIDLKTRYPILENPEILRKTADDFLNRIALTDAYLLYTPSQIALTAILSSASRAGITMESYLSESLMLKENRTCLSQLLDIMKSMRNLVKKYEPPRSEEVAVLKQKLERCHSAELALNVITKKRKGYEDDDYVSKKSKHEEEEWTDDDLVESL
Description: as §1

[8] = biological target: T2, GSK3β (Homo sapiens, UniProt P49841); test: GSK3β in vitro kinase assay; settings: recombinant human GSK3β, 100 μM ATP
T2 construct: purchased New England Biolabs
T2 sequence (P49841 whole entry): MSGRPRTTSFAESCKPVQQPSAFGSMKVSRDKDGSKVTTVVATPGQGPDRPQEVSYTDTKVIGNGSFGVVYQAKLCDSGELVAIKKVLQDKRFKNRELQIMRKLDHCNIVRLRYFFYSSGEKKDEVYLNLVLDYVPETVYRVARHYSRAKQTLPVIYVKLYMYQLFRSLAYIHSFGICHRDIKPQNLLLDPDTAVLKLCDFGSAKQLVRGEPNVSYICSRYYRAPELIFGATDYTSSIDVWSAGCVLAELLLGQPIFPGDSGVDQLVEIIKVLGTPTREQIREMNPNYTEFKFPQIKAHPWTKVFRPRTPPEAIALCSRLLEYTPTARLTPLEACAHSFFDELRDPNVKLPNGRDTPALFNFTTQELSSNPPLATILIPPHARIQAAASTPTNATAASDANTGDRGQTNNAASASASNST
Description: Both isoforms of GSK3 (α and β) are involved in the regulation of glycogen synthase activity—key enzyme in the glycogen metabolism.
A 10-point titration was set up to determine the IC50 values of selected example compounds against GSK3β. Assays were performed using 96-well microtiter plates with a final volume of 25 μL per well. Each assay contained 1.5 units of GSK3β(New England Biolabs), 200 μM CREB phosphopeptide ([…]pSYR, Alta Biosciences), 20 mM Tris HCl pH7.5, 5 mM DTT, 15 mM MgCl2 supplemented with 100 μM ATP and 0.5 μCi of [γ-^32P] ATP plus or minus inhibitor in 2% DMSO. Assays were carried out for 30 minutes at 30° C. before stopping the reaction by the addition of an equal volume of 75 mM aqueous phosphoric acid. Samples were then spotted onto a p81 filterplate (Whatman) and a vacuum was applied. Wells were washed 3 times with 200 μL of dilute aqueous phosphoric acid before the addition of 50 μL Microscint 40 per well. Incorporation of radioactivity was determined on a Topcount microplate scintillation counter (Packard).

CDK4/cyclin D1, sequence (P11802 whole entry, species assumed): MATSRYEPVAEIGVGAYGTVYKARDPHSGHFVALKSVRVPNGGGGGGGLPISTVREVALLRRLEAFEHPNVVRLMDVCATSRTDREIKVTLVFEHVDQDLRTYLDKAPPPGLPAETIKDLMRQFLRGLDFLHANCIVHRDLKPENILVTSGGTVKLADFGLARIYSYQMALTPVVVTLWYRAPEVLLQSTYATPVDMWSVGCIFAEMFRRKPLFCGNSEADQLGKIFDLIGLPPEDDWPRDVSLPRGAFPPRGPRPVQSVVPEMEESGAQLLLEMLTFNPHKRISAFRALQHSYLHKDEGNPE
CDK4/cyclin D1, sequence (P24385 whole entry partner, species assumed): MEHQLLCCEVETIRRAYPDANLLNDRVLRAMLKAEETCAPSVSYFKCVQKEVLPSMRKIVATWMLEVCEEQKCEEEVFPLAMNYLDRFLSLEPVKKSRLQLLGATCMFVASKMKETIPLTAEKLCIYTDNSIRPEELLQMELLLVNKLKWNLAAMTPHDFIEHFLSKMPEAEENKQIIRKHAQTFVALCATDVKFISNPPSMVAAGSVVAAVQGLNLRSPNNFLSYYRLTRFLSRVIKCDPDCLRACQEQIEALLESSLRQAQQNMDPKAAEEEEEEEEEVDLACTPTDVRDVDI

Compound | Ki [1] [nM] | Ki [2] [nM] | Ki [3] [nM] | Ki [4] [nM] | Ki [5] [nM] | Ki [6] [nM] | Ki [7] [nM] | IC50 [8] [nM]
Cc1c(-c2ccnc(Nc3cccc([N+](=O)[O-])c3)n2)sc(=O)n1C [Compound 1, 3,4-Dimethyl-5-[2-(3-nitro-phenylamino)-pyrimidin-4-yl]-3H-thiazol-2-one] | 300 | 1000 | 0.3 | 10 | 170 | 700 | 2.8 | –
Cc1c(-c2ccnc(Nc3ccc(N(C)C)c([N+](=O)[O-])c3)n2)sc(=O)n1C [Compound 22, 5-[2-(4-Dimethylamino-3-nitro-phenylamino)-pyrimidin-4-yl]-3,4-dimethyl-3H-thiazol-2-one] | 1300 | 82 | 7.2 | 53 | 0.5 | 110 | 1.9 | –
CCn1c(C)c(-c2ccnc(Nc3ccc(N(C)C)cc3)n2)sc1=O [Compound 26, 5-[2-(4-Dimethylamino-phenylamino)-pyrimidin-4-yl]-3-ethyl-4-methyl-3H-thiazol-2-one] | 280 | 7000 | 690 | 290 | 150 | – | 220 | –
CCn1c(C)c(-c2ccnc(Nc3ccc(N4CCOCC4)cc3)n2)sc1=O [Compound 27, 3-Ethyl-4-methyl-5-[2-(4-morpholin-4-yl-phenylamino)-pyrimidin-4-yl]-3H-thiazol-2-one] | 3300 | – | 690 | 500 | 2000 | 33 | 1600 | –
Cc1c(-c2ccnc(Nc3cccc([N+](=O)[O-])c3)n2)sc(=O)n1CCC(C)C [Compound 30, 4-Methyl-3-(3-methyl-butyl)-5-[2-(3-nitro-phenylamino)-pyrimidin-4-yl]-3H-thiazol-2-one] | 21000 | 670 | 190 | 290 | 560 | – | 31 | –
Cc1ccc(Nc2nccc(-c3sc(=O)[nH]c3C)n2)cc1[N+](=O)[O-] [Compound 41, 4-Methyl-5-[2-(4-methyl-3-nitro-phenylamino)-pyrimidin-4-yl]-3H-thiazol-2-one] | 130 | 49 | 8.9 | 12 | 23 | – | 290 | –
CCn1c(C)c(-c2ccnc(Nc3cccc(O)c3)n2)sc1=O [Compound 43, 3-Ethyl-5-[2-(3-hydroxy-phenylamino)-pyrimidin-4-yl]-4-methyl-3H-thiazol-2-one] | 130 | – | – | 2 | – | – | 19 | 41.5
CCn1c(C)c(-c2ccnc(Nc3ccc(Cl)c(C(F)(F)F)c3)n2)sc1=O [Compound 48, 5-[2-(4-Chloro-3-trifluoromethyl-phenylamino)-pyrimidin-4-yl]-3-ethyl-4-methyl-3H-thiazol-2-one] | – | – | 230 | – | – | – | – | 61.9
Cc1c(-c2ccnc(Nc3ccc(S(=O)(=O)NCc4ccccc4)cc3)n2)sc(=O)n1C [Compound 73, N-Benzyl-4-[4-(3,4-dimethyl-2-oxo-2,3-dihydro-thiazol-5-yl)-pyrimidin-2-ylamino]-benzenesulfonamide] | – | 1100 | 380 | 80 | 650 | – | – | 66.5
Cc1c(-c2ccnc(Nc3ccc(CN)cc3)n2)sc(=O)n1C [Compound 80, 5-[2-(4-Aminomethyl-phenylamino)-pyrimidin-4-yl]-3,4-dimethyl-3H-thiazol-2-one] | – | – | – | – | – | 380 | – | 69.8

The next lines start with the values.

Ki [1] [nM] | Ki [2] [nM] | Ki [3] [nM] | Ki [4] [nM] | Ki [5] [nM] | Ki [6] [nM] | Ki [7] [nM] | IC50 [8] [nM] | Compound
2000 | 2600 | 490 | 660 | 190 | – | 200 | – | COc1ccc(Nc2nccc(-c3sc(=O)n(CCC(C)C)c3C)n2)cn1 [Compound 35, 5-[2-(6-Methoxy-pyridin-3-ylamino)-pyrimidin-4-yl]-4-methyl-3-(3-methyl-butyl)-3H-thiazol-2-one]
150 | 64 | 14 | 98 | 8.6 | – | 600 | – | Cc1ccc(Nc2nccc(-c3sc(=O)n(C)c3C)n2)cc1N [Compound 39, 5-[2-(3-Amino-4-methyl-phenylamino)-pyrimidin-4-yl]-3,4-dimethyl-3H-thiazol-2-one]
230 | 17 | 2.4 | 3.2 | 11 | – | 71 | – | Cc1[nH]c(=O)sc1-c1ccnc(Nc2cccc([N+](=O)[O-])c2)n1 [Compound 40, 4-Methyl-5-[2-(3-nitro-phenylamino)-pyrimidin-4-yl]-3H-thiazol-2-one]
770 | 580 | 19 | 34 | 220 | – | 380 | 38.5 | CC(=O)NCc1cccc(Nc2nccc(-c3sc(=O)n(C)c3C)n2)c1 [Compound 42, N-{3-[4-(3,4-Dimethyl-2-oxo-2,3-dihydro-thiazol-5-yl)-pyrimidin-2-ylamino]-benzyl}-acetamide]
– | 2100 | 190 | 270 | – | – | 970 | 542 | CCn1c(C)c(-c2ccnc(Nc3ccc(Cl)c(C)c3)n2)sc1=O [Compound 51, 5-[2-(4-Chloro-3-methyl-phenylamino)-pyrimidin-4-yl]-3-ethyl-4-methyl-3H-thiazol-2-one]
1200 | 730 | 16 | 77 | 160 | 25 | 70 | – | CCn1c(C)c(-c2ccnc(Nc3ccc([N+](=O)[O-])cc3)n2)sc1=O [Compound 52, 3-Ethyl-4-methyl-5-[2-(4-nitro-phenylamino)-pyrimidin-4-yl]-3H-thiazol-2-one]
– | – | – | 180 | 590 | – | – | 43.5 | CCn1c(C)c(-c2ccnc(Nc3ccc(S(=O)(=O)O)cc3)n2)sc1=O [Compound 53, 4-[4-(3-Ethyl-4-methyl-2-oxo-2,3-dihydro-thiazol-5-yl)-pyrimidin-2-ylamino]-benzenesulfonic acid]
– | – | – | – | – | – | – | 158 | CCn1c(C)c(-c2ccnc(Nc3cccc(S(=O)(=O)O)c3)n2)sc1=O [Compound 54, 3-[4-(3-Ethyl-4-methyl-2-oxo-2,3-dihydro-thiazol-5-yl)-pyrimidin-2-ylamino]-benzenesulfonic acid]
